Here are results for one substance from patent US11008622B2, “Biomarker for predicting sensitivity to EGFR-targeting agent, and use thereof” (THE ASAN FOUNDATION, priority 2014, dated 2021).

For one data set, the system named is FZD4 and GPR101 genes. Kind of data set: Real-time PCR of EGFR transactivation-related genes after RON inhibition. In kind it is cell-based, human. Particulars: KM12C, RON siRNA 48 hours; FIG. 1E. As for the experimental part: In order to perform the RT-PCR, Colo320HSR colon cancer cell line in which the RON was non-expressed was transfected with construct expressing the RONΔ160 as the RON active type form for 48 hours and KM12C colon cancer cell line in which the RON was activated was transfected with the RON siRNA for 48 hours. The RNA was extracted by using trizol (Cat.#15596-026, Life Technologies™), respectively. The extracted RNA was synthesized to cDNA by using a RT-PCR Kit (AccuPower RT PreMix, Bioneer). The difference in expression of the corresponding gene was verified by PCR (AccuPower PCRPreMix, Bioneer) by using the synthesized cDNA and a gene-specific primer and quantified by using a real-time PCR (LightCycler 480 SYBR Green, Roche).
The inventors analyzed the expression of the genes Adam11, Adam32, FZD4, GPER, and GPR101 associated with the EGFR transactivation with real-time PCR after artificially suppressing the RON activity by using an siRNA technique in the KM12C colon cancer cell line in which the RON was activated, in order to analyze the change aspect of the expression of the EGFR transactivation-related genes according to the RON inhibition.
(In general: Quantitative PCR measures a nucleic acid by following its amplification.)

The test system of a further data set is EGFR. Kind of data set: EGFR phosphorylation by western blot after RON inhibition by siRNA. The class given is cell-based, human. Here is the method:
In order to perform the western blot, a protein separated from each cell was separated through SDS-PAGE and transferred to polyscreen membranes (New England Nuclear, Boston, Mass., USA), reacted for 12 hours at 4° C. by using various antibodies (anti-phospho RON (MyBioSource, San Diego, Calif., USA), anti-phospho Tyrosine, anti-EGFR, anti-phospho EGFR (Cell signaling Technology, Beverly, Mass., USA), anti-RON, and anti-r-tubulin (Santa Cruz Biotechnology), and then washed with a 1×TBS-T buffer solution for 10 minutes three times. A suitable anti-rabbit-HRP or anti-mouse-HRP secondary antibody reacted for 2 hours at room temperature and was washed with the 1×TB S-T buffer solution for 10 minutes three times to verify the expression of the protein by using an ECL solution (Amersham, Buckinghamshire, UK).
The inventors verified the phosphorylation induction of the EGFR by performing the western blot, after artificially suppressing the RON by using a siRNA technique in the KM12C and HT29 colon cancer cell lines in which the RON was expressed and activated, in order to verify the change in activity of the EGFR protein by the activation of the RON protein. […]

As for “5′-ACUUUGUAGAGGAGUUUGAUU-3′ (listed as RNA, chemistry not given here) [RON siRNA]”, in the data set with FZD4 and GPR101 genes, the FZD4 gene expression result is given as “significantly reduced” and the GPR101 gene expression entry is given as “significantly reduced”. The “activity of the EGFR (phosphorylation)” value in the data set on EGFR (KM12C and HT29 colon cancer cell lines, FIG. 2B) is recorded as “decreased”. Besides, the “phosphorylation of the EGFR induced by the EGF” value with EGFR (KM12C, by EGF ligand treating time, FIG. 2C) is given as “decreased”.
